According to the supplement of paper PMC10307832:

Assays:
Experiment in all cases: relative viability (nuclei count vs DMSO), 5 days (fraction); higher = more cells survive
[1] = test system: HOP-62
Outline: (§1)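 After 5 days of treatment, lung cancer cells in 1536-well plates were fixed and stained in a single step (final 0.05% Triton X-100, 1% formaldehyde, 1 ug/ml Hoechst) and their nuclei counted on 4× images. Treatment had been applied by pin tool the day after seeding as one drug alone or as a fixed anchor-drug dose with five library-drug doses (not always all listed) in √10 steps. Relative viability is the nuclei count of treated wells divided by that of vehicle wells, and values are medians of duplicate plates.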

[2] = test system: NCI-H727
Outline: as §1

[3] = test system: SW 1573
Outline: as §1

[4] = test system: A-427
Outline: as §1

[5] = test system: NCI-H460
Outline: as §1

[6] = test system: NCI-H2228
Outline: as §1

[7] = test system: CAL-12T
Outline: as §1

[8] = test system: NCI-H2009
Outline: as §1

[9] = test system: NCI-H1915
Outline: as §1

[10] = test system: COR-L 105
Outline: as §1

[11] = test system: NCI-H1437
Outline: as §1

[12] = test system: HARA
Outline: as §1

[13] = test system: HCC-827
Outline: as §1

[14] = test system: SK-LU-1
Outline: as §1

[15] = test system: EMC-BAC-2
Outline: as §1

[16] = test system: NCI-H23
Outline: as §1

[17] = test system: NCI-H1395
Outline: as §1

[18] = test system: LCLC-103H
Outline: as §1

[19] = test system: NCI-H522
Outline: as §1

[20] = test system: HCC-366
Outline: as §1

[21] = test system: NCI-H1755
Outline: as §1

[22] = test system: NCI-H1792
Outline: as §1

For `COc1nc(C)cnc1NS(=O)(=O)c1cccnc1-c1ccc(-c2nnco2)cc1` [Zibotentan] + N=C(N)NC(=N)NCCc1ccccc1 [Phenformin] (partner 250 µM), the relative viability ([1]; first compound 0.08 µM) was 0.746, the relative viability ([1]; first compound 0.253 µM) was 0.664 and the relative viability ([1]; first compound 0.8 µM) was 0.747. It also gave a relative viability ([1]; first compound 2.53 µM) of 0.715, a relative viability ([2]; first compound 0.08 µM) of 0.41 and a relative viability ([2]; first compound 0.253 µM) of 0.519. It also gave a relative viability ([2]; first compound 0.8 µM) of 0.553, a relative viability ([2]; first compound 2.53 µM) of 0.627 and a relative viability ([3]; first compound 0.08 µM) of 0.397. The relative viability ([3]; first compound 0.8 µM) was 0.359, the relative viability ([3]; first compound 2.53 µM) was 0.334 and the relative viability ([4]; first compound 0.08 µM) was 0.38. The relative viability ([4]; first compound 0.253 µM) was 0.39, the relative viability ([4]; first compound 0.8 µM) was 0.397 and the relative viability ([4]; first compound 2.53 µM) was 0.348. For the same compound, the relative viability ([5]; first compound 0.08 µM) was 0.56, the relative viability ([5]; first compound 0.253 µM) was 0.147 and the relative viability ([5]; first compound 0.8 µM) was 0.496. It also gave a relative viability ([5]; first compound 2.53 µM) of 0.532, a relative viability ([6]; first compound 0.08 µM) of 0.324 and a relative viability ([6]; first compound 0.253 µM) of 0.314. For the same compound, the relative viability ([6]; first compound 0.8 µM) was 0.444, the relative viability ([6]; first compound 2.53 µM) was 0.415 and the relative viability ([7]; first compound 0.08 µM) was 0.602. The relative viability ([7]; first compound 0.253 µM) was 0.482, the relative viability ([7]; first compound 0.8 µM) was 0.554 and the relative viability ([7]; first compound 2.53 µM) was 0.609. It also gave a relative viability ([8]; first compound 0.08 µM) of 0.494, a relative viability ([8]; first compound 0.253 µM) of 0.469 and a relative viability ([8]; first compound 0.8 µM) of 0.542. It also gave a relative viability ([8]; first compound 2.53 µM) of 0.481, a relative viability ([9]; first compound 0.08 µM) of 0.399 and a relative viability ([9]; first compound 0.253 µM) of 0.358. For the same compound, the relative viability ([9]; first compound 0.8 µM) was 0.377, the relative viability ([9]; first compound 2.53 µM) was 0.289 and the relative viability ([10]; first compound 0.08 µM) was 0.382. For the same compound, the relative viability ([10]; first compound 0.253 µM) was 0.423, the relative viability ([10]; first compound 0.8 µM) was 0.406 and the relative viability ([10]; first compound 2.53 µM) was 0.554. It also gave a relative viability ([11]; first compound 0.08 µM) of 0.308, a relative viability ([11]; first compound 0.253 µM) of 0.297 and a relative viability ([11]; first compound 0.8 µM) of 0.297. For the same compound, the relative viability ([11]; first compound 2.53 µM) was 0.347, the relative viability ([12]; first compound 0.08 µM) was 0.462 and the relative viability ([12]; first compound 0.253 µM) was 0.429. The relative viability ([12]; first compound 0.8 µM) was 0.217, the relative viability ([12]; first compound 2.53 µM) was 0.489 and the relative viability ([13]; first compound 0.08 µM) was 0.429. The relative viability ([13]; first compound 0.253 µM) was 0.399, the relative viability ([13]; first compound 0.8 µM) was 0.387 and the relative viability ([13]; first compound 2.53 µM) was 0.421. It also gave a relative viability ([14]; first compound 0.08 µM) of 0.53, a relative viability ([14]; first compound 0.253 µM) of 0.463 and a relative viability ([14]; first compound 0.8 µM) of 0.501. The relative viability ([14]; first compound 2.53 µM) was 0.503, the relative viability ([15]; first compound 0.08 µM) was 0.541 and the relative viability ([15]; first compound 0.8 µM) was 0.61. For the same compound, the relative viability ([15]; first compound 2.53 µM) was 0.538, the relative viability ([16]; first compound 0.08 µM) was 0.85 and the relative viability ([16]; first compound 0.253 µM) was 0.762. For the same compound, the relative viability ([16]; first compound 0.8 µM) was 0.761, the relative viability ([16]; first compound 2.53 µM) was 0.86 and the relative viability ([17]; first compound 0.08 µM) was 0.43. It also gave a relative viability ([17]; first compound 0.253 µM) of 0.45, a relative viability ([17]; first compound 0.8 µM) of 0.464 and a relative viability ([17]; first compound 2.53 µM) of 0.486. The relative viability ([18]; first compound 0.08 µM) was 0.357, the relative viability ([18]; first compound 0.253 µM) was 0.314 and the relative viability ([18]; first compound 0.8 µM) was 0.315. It also gave a relative viability ([18]; first compound 2.53 µM) of 0.333, a relative viability ([19]; first compound 0.08 µM) of 0.614 and a relative viability ([19]; first compound 0.253 µM) of 0.648. For the same compound, the relative viability ([19]; first compound 0.8 µM) was 0.672, the relative viability ([19]; first compound 2.53 µM) was 0.723 and the relative viability ([20]; first compound 0.08 µM) was 0.692. For the same compound, the relative viability ([20]; first compound 0.253 µM) was 0.62, the relative viability ([20]; first compound 0.8 µM) was 0.577 and the relative viability ([20]; first compound 2.53 µM) was 0.603. For the same compound, the relative viability ([21]; first compound 0.08 µM) was 0.658, the relative viability ([21]; first compound 0.253 µM) was 0.636 and the relative viability ([21]; first compound 0.8 µM) was 0.599. The relative viability ([21]; first compound 2.53 µM) was 0.703, the relative viability ([22]; first compound 0.08 µM) was 0.424 and the relative viability ([22]; first compound 0.253 µM) was 0.244. It also gave a relative viability ([22]; first compound 0.8 µM) of 0.355 and a relative viability ([22]; first compound 2.53 µM) of 0.259.
